In patent publication US9572821B2, “Pharmaceutical compositions for preventing and treating eye pathologies” (MITOTECH SA, priority 2006, dated 2017):

Columns and labels:
Format in all cases: in vivo, rat
[1] = test system: cataract in OXYS rats; test: Prophylactic effect on cataract (lens changes), ophthalmoscopic examination of OXYS rats; settings: for 2nd stage of cataract: KBr: % of total number of eyes, vitamin E: % of changes; for lens changes observed/registered (cataract morbidity): after oral course from 1.5 to 3 months, % of eyes/cases; for lens changes observed/registered (cataract morbidity) / cataract newly affected/added during the course (20% of eyes already affected at 1.5 months): SkQ1 or KBr 50 nmol per kg
Procedure: (§1) The study was carried out using OXYS and Wistar male rats. The animals were housed in cages (five rats per a cage) and kept under standard laboratory conditions (at 22±1° C., 60% relative humidity, and natural light), provided with a standard rodent diet (PK-120-1, Ltd. ‘Laboratorsnab’, Russia), and given water ad libitum. At the age of 1.5 months after preliminary pupil dilation with 1% tropicamide ophthalmic the rats were examined by ophthalmologist. During the period from 1.5 to 3 months, which is critical for the development of pronounced changes in eye organ of OXYS rats, the animals were given either SkQ1 (50 nmol per kg of body weight), or KBr (50 nmol per kg of body weight) or vitamin E (alfa-tocopherol acetate, 20 mg per kg). We use Vitamin E for a comparison with test antioxidants. Animals received the compounds on a small piece of dried bread before a regular meal, and the control group of animals received the same piece of bread without any compound. After completing the course of antioxidants the animals were weighed and retested with ophthalmoscope. To avoid human factor in the evaluation of compound effects, the researcher who conducted the ophthalmoscopic examination was not told which of the animals received antioxidants.
(§2) The ophthalmoscopic examination was carried out using direct ophthalmoscope “Betta”, Germany. In selected animals under fluorotane narcosis (1-1.5 minutes) eyeground was photographed, fluorescent angiography with the use of “Opton” fundus-camera was conducted or crystalline lenses were examined by means of slitlamp “Opton SL30” using system of automatic image registration (biomicroscopic research).
(§3) The lens state was evaluated according to the classification system accepted in clinical practice (L. A. Katsnelson, T. I. Forofonova, A. Ya. Bunin, 1990) with grades ranging from 0 to 3: score 0—the lens is clear; score 1—spotted weak cloudiness; score 2—multiple spots of cloudiness and score 3—intense cloudiness of the lens core and nucleus. The presence and the degree of spotted changes in macular area were evaluated according to accepted classification: score 0—no changes; score 1—the 1st stage of pathology, when small yellow deposits, known as “drusen” appear underneath the macula; score 2—2nd stage, the development of prominent yellow spot with sharp edges with the size of 0.5 to 1 of the disk diameter (exudative detachment of pigment retinal epithelium); and score 3—3rd stage with extensive hemorrhage into macular area.
(§4) Statistical processing of the results was carried out using the factorial dispersive analysis (ANOVA/MANOVA, Statistica, 5) with post hoc comparison of group average (Newman-Keul test) considering genotype and preparation as independent factors.

[2] = test system: macular dystrophy in OXYS rats; test: Prophylactic effect on macular dystrophy (changes in macular area of retina), ophthalmoscopic examination of OXYS rats; settings: for 2nd stage of macular degeneration: KBr: % of these changes; for changes in the macular area of the retina (macular dystrophy morbidity): after oral course from 1.5 to 3 months, % of eyes/cases; for changes in the macular area of the retina (macular dystrophy morbidity) / macular dystrophy newly affected during the course (10% already affected at 1.5 months): SkQ1 or KBr 50 nmol per kg
Procedure: as §1, §2, §3, §4

[3] = test system: cataract in OXYS rats; test: Therapeutic effect on state of crystalline lenses, OXYS rats aged 10.5 months; settings: for pathological changes of lenses, before vs after the therapy course: 10.5 to 12 months, pair comparisons / comparison of average values; for Changes of lenses, grades (score): examination after therapy course at the age of 12 months, 50 nmol per kg of body weight, score 0-3
Procedure: as §1, with “[…],” for “During the period from 1.5 to 3 months,”
as §2, §3, §4

[4] = test system: macular dystrophy (retinopathy) in OXYS rats; test: Therapeutic effect on macular area of retina, OXYS rats aged 10.5 months; settings: for pathological changes of retina, before vs after the therapy course / Changes of macular area of retina, grades (score): OXYS rats; for pathological changes of retina, before vs after the therapy course: 10.5 to 12 months, pair comparisons / comparison of average values; for Changes of macular area of retina, grades (score): examination after therapy course at the age of 12 months, 50 nmol per kg of body weight, score 0-3
Procedure: as §1, with “During the period from 1.5 to 3 months, which is critical for the development of pronounced changes in eye organ of OXYS rats, the animals were given either SkQ1 (50 nmol per kg of body weight), or KBr (50 nmol per kg of body weight) or vitamin E (alfa-tocopherol acetate, 20 mg per kg).” left out
as §2, §3, §4

[5] = test system: lenses of Wistar rats; test: Therapeutic experiment, state of crystalline lenses, Wistar rats aged 10.5 months; settings: examination after therapy course at the age of 12 months, 50 nmol per kg of body weight, score 0-3
Procedure: The study was carried out using OXYS and Wistar male rats. The animals were housed in cages (five rats per a cage) and kept under standard laboratory conditions (at 22±1° C., 60% relative humidity, and natural light), provided with a standard rodent diet (PK-120-1, Ltd. ‘Laboratorsnab’, Russia), and given water ad libitum. At the age of 1.5 months after preliminary pupil dilation with 1% tropicamide ophthalmic the rats were examined by ophthalmologist. […]
(§5) The lens state was evaluated according to the classification system accepted in clinical practice (L. A. Katsnelson, T. I. Forofonova, A. Ya. Bunin, 1990) with grades ranging from 0 to 3: score 0—the lens is clear; score 1—spotted weak cloudiness; score 2—multiple spots of cloudiness and score 3—intense cloudiness of the lens core and nucleus. The presence and the degree of spotted changes in macular area were evaluated according to accepted classification: score 0—no changes; score 1—the 1st stage of pathology, when small yellow deposits, known as “drusen” appear underneath the macula; score 2—2nd stage, the development of prominent yellow spot with sharp edges with the size of 0.5 to 1 of the disk diameter (exudative detachment of pigment retinal epithelium); and score 3—3rd stage with extensive hemorrhage into macular area. […]

[6] = test system: retina of Wistar rats; test: Therapeutic experiment, macular area of retina, Wistar rats aged 10.5 months; settings: for Changes of macular area of retina, grades (score): Wistar rats, examination after therapy course at the age of 12 months, 50 nmol per kg of body weight, score 0-3
Procedure: as §1, with “by ophthalmologist. […], which is” for “by ophthalmologist. During the period from 1.5 to 3 months, which is”, “received antioxidants. […]” for “received antioxidants.”
as §5

[7] = OXYS rats at 3 months, after course from 1.5 to 3 months
[8] = OXYS rats at 3 months, vitamin E 20 mg per kg
[9] = OXYS rats, 1.5 to 3 months, vitamin E 20 mg per kg
[10] = OXYS rats at 3 months, after course from 1.5 to 3 months, SkQ1 50 nmol per kg
[11] = OXYS rats, 1.5 to 3 months, SkQ1 50 nmol per kg
[12] = one month after the end of SkQ1 administration, in contrast to the control group
[13] = OXYS rats after SkQ1 therapy course

CC(=O)Oc1c(C)c(C)c2c(c1C)CCC(C)(CCC[C@H](C)CCC[C@H](C)CCCC(C)C)O2 (some centres unmarked) [vitamin E, alfa-tocopherol acetate]
2nd stage of cataract [1, 7]: 12%
lens changes observed/registered (cataract morbidity) [1, 8]: 58%
cataract cases, times less than in the control intact group [1, 9]: 1.8 times
cataract newly affected/added during the course (20% of eyes already affected at 1.5 months) [1, 9]: 38%
2nd stage of macular degeneration [2, 7]: 8%
changes in the macular area of the retina (macular dystrophy morbidity) [2, 8]: 54%
macular changes, times less than in the control intact group [2, 9]: 1.5 times

CC1=C(C)C(=O)C(CCCCCCCCCC[P+](c2ccccc2)(c2ccccc2)c2ccccc2)=CC1=O.[Br-] [SkQ1]
stage to which the lens changes corresponded [1, 10]: 1st stage of cataract
lens changes observed/registered (cataract morbidity) [1, 8]: 46%
cataract cases, times less than in the group supplemented with KBr [1, 11]: 2.8 times
cataract newly affected/added during the course (20% of eyes already affected at 1.5 months) [1, 9]: 26%
effect on cataract progression ([1]; OXYS rats, FIG. 3): essentially affected their progression
changes in the state of crystalline lens after the end of the course [1, 12]: no any changes
stage to which the macular changes corresponded [2, 10]: 1st stage of macular degeneration
changes in the macular area of the retina (macular dystrophy morbidity) [2, 8]: 38%
macular dystrophy cases, times less than in the control group [2, 11]: 2.8 times
macular dystrophy newly affected during the course (10% already affected at 1.5 months) ([2]; OXYS rats, 1.5 to 3 months): 28%
effect on macular dystrophy progression ([2]; OXYS rats, FIG. 4): essentially affected their progression
changes in the state of retina after the end of the course [2, 12]: no any changes
pathological changes of lenses, before vs after the therapy course [3]: much less pronounced
Changes of lenses, grades (score) [3]: 0.41 ± 0.13 score
hemorrhages in retina [4, 13]: resolution of hemorrhages
ischemic centers in retina [4, 13]: reduction of quantity and area of ischemic centers
puffiness of retina [4, 13]: significant reduction of puffiness
pathological changes of retina, before vs after the therapy course [4]: much less pronounced
Changes of macular area of retina, grades (score) [4]: 0.32 ± 0.13 score
Changes of lenses, grades (score) [5]: 0.54 ± 0.14 score
animals with changes of retina appropriate to even the most initial stage of disease ([6]; Wistar rats supplemented with SkQ1, after 45 days): practically absent
Changes of macular area of retina, grades (score) [6]: 0.09 ± 0.06 score

[Br-].[K+] [KBr, reference compound]
2nd stage of cataract [1, 7]: 57%
lens changes observed/registered (cataract morbidity) [1, 8]: 93%
cataract newly affected/added during the course (20% of eyes already affected at 1.5 months) [1, 9]: 73%
2nd stage of macular degeneration [2, 7]: 13%
changes in the macular area of the retina (macular dystrophy morbidity) [2, 8]: 87%
macular dystrophy newly affected during the course (10% already affected at 1.5 months) ([2]; OXYS rats, 1.5 to 3 months): 77%
pathological changes of lenses, before vs after the therapy course [3]: authentically aggravated
Changes of lenses, grades (score) [3]: 1.6 ± 0.23 score
pathological changes of retina, before vs after the therapy course [4]: no any changes
Changes of macular area of retina, grades (score) [4]: 1.13 ± 0.17 score
Changes of lenses, grades (score) [5]: 0.5 ± 0.15 score
Changes of macular area of retina, grades (score) [6]: 0.25 ± 0.10 score
